# In patent US11275071B2, “Sensor dyes for real-time sensing of metal ions in aqueous environments” (UWM Research Foundation, Inc., priority 2015, dated 2022):
# Assays:
# [1] = Metal response of PAN-7OH, absorbance at pH 7; format: binding; settings: 25 μM PAN-7OH, 250 μM metal ion, pH 7 buffer, 2 mM Triton X-100
# Method: (§1) Solutions were made containing 25 μM PAN-7OH and 250 μM metal ion (excess amount) in pH 7 buffer containing 2 mM Triton X-100.
# [2] = Metal response of PAN-7OH, absorbance at pH 7; format: binding; settings: 25 μM PAN-7OH, 250 μM metal ion, pH 7 buffer, 2 mM Triton X-100; remark: listed apart in the source
# Method: as §1
# [3] = Metal response of PAN-7OH, absorbance at pH 7; format: binding; settings: 25 μM PAN-7OH, 250 μM metal ion, pH 7 buffer, 2 mM Triton X-100; remark: listed apart in the source
# Method: as §1
# [4] = Metal response of PAN-7OH, absorbance at pH 7; format: binding; settings: 25 μM PAN-7OH, 250 μM metal ion, pH 7 buffer, 2 mM Triton X-100; remark: listed apart in the source
# Method: as §1
# [5] = Metal response of PAN-7OH, absorbance at pH 7; format: binding; settings: 25 μM PAN-7OH, 250 μM metal ion, pH 7 buffer, 2 mM Triton X-100; remark: listed apart in the source
# Method: as §1
# [6] = Metal response of PAN-7OH, absorbance at pH 7; format: binding; settings: 25 μM PAN-7OH, 250 μM metal ion, pH 7 buffer, 2 mM Triton X-100; remark: listed apart in the source
# Method: as §1
# [7] = Metal response of PAN-7OH, absorbance at pH 7; format: binding; settings: 25 μM PAN-7OH, 250 μM metal ion, pH 7 buffer, 2 mM Triton X-100; remark: listed apart in the source
# Method: as §1
# [8] = Metal response of PAN-7OH, absorbance at pH 7; format: binding; settings: 25 μM PAN-7OH, 250 μM metal ion, pH 7 buffer, 2 mM Triton X-100; remark: listed apart in the source
# Method: as §1
# [9] = Metal response of PAN-7OH, absorbance at pH 7; format: binding; settings: 25 μM PAN-7OH, 250 μM metal ion, pH 7 buffer, 2 mM Triton X-100; remark: listed apart in the source
# Method: as §1
# [10] = Metal response of PAN-7OH, absorbance at pH 7; format: binding; settings: 25 μM PAN-7OH, 250 μM metal ion, pH 7 buffer, 2 mM Triton X-100; remark: listed apart in the source
# Method: as §1
# [11] = Metal response of PAN-7OH, absorbance at pH 7; format: binding; settings: 25 μM PAN-7OH, 250 μM metal ion, pH 7 buffer, 2 mM Triton X-100; remark: listed apart in the source
# Method: as §1
# [12] = Metal response of PAN-7OH, absorbance at pH 7; format: binding; settings: 25 μM PAN-7OH, 250 μM metal ion, pH 7 buffer, 2 mM Triton X-100; remark: listed apart in the source
# Method: as §1
# [13] = Metal response of PAN-7OH, absorbance at pH 7; format: binding; settings: 25 μM PAN-7OH, 250 μM metal ion, pH 7 buffer, 2 mM Triton X-100; remark: listed apart in the source
# Method: as §1
# [14] = Protonation states of free PAN-7OH, pKA; format: physicochemical; settings: free dye; site 1-OH (Metal Binding)
# Method: The acid dissociation constants (pKA) and spectral profiles were determined for PAN-70H. PAN-7OH has three protonation sites: The heterocyclic nitrogen in the pyridyl moiety, and the two hydroxyl groups on the naphthalene ring. […] The latter group can potentially be used for covalent attachment of the sensor to a substrate.
# The buffer reagents were treated with Chelex-100 to remove trace metal impurities. The samples were prepared containing 25 μM PAN-7OH in a 0.1 M pH buffer containing 2 mM Triton X-100 surfactant.
# The data was analyzed using ReactLab Equilibria to determine the resulting pKA values. PAN-7OH has three protonation sites, so four species were used for the analysis model. The pKA values were assigned using values from well-known molecules with a similar structure. […] No error propagation calculations were performed here.
# [15] = Protonation states of Zn-(PAN-7OH) complexes
smiles,measurement,setting,value
Oc1ccc2ccc(O)c(N=Nc3ccccn3)c2c1 [PAN-7OH],absorbance change relative to the free dye,[1],red-shifted absorbance
same,absorbance change relative to the free dye,[1]; minor,red-shifted absorbance
same,absorbance change relative to the free dye,[2],red-shifted absorbance
same,absorbance change relative to the free dye,[3],red-shifted absorbance
same,absorbance change relative to the free dye,[4],red-shifted absorbance
same,absorbance change relative to the free dye,[5],red-shifted absorbance
same,absorbance change relative to the free dye,[6],red-shifted absorbance
same,absorbance change relative to the free dye,[7],blue-shifted absorbance
same,absorbance change relative to the free dye,[8],blue-shifted absorbance
same,absorbance change relative to the free dye,[9],did not exhibit an appreciable absorbance change
same,absorbance change relative to the free dye,[10],did not exhibit an appreciable absorbance change
same,absorbance change relative to the free dye,[11],did not exhibit an appreciable absorbance change
same,absorbance change relative to the free dye,[12],did not exhibit an appreciable absorbance change
same,absorbance change relative to the free dye,[13],did not exhibit an appreciable absorbance change
same,pKA,[14],12.258
same,"pH at which the Zn-(PAN-7OH) complexes decomposed, strongly alkaline conditions",[15],> 12 pH
same,"pH at which the Zn-(PAN-7OH) complexes decomposed, weakly acidic conditions",[15],< 6 pH
same,Acidic Dissociation,"[15]; Zn(PAN-7OH)2H2 decomposition under acidic conditions, midpoint of species distribution curve",5.272
same,Alkaline Dissociation,"[15]; Zn(PAN-7OH)2^2− decomposition, zinc hydroxide formation, strongly alkaline conditions, midpoint of curve",13.164
same,Complex pKA,"[15]; non-binding hydroxyl group in the Zn-(PAN-7OH) complex, 20 μM PAN-7OH, 20 μM zinc",10.449
